Reference: US4377581A, “Chloro- and alkoxy-substituted-2,4-diaminoquinazolines” (Pfizer Inc., priority 1981, dated 1983)
Entries after “also recorded” stand apart in the source; their conditions may differ. Where a name gives a salt, the structure may show the parent alone.

test system: conscious renally hypertensive dogs; assay: Blood pressure lowering in conscious renally hypertensive dogs, oral; assay type: in vivo, dog; details: 0.2 mg./hg. as printed, time of reduction not given
Protocol: The antihypertensive activity of the compounds of the invention is shown by their ability to lower the blood pressure of conscious spontaneously hypertensive rats and conscious renally hypertensive dogs, when administered orally at doses of up to 30 mg./kg.
Similarly, at the same dosage 2-[4-(2-hydroxy-2-methylprop-1-yloxycarbonyl)piperazin-1-yl]-4-amino-6-chloro-7-methoxyquinazoline, a particularly preferred compound of the invention, caused a reduction of 40 mm. Hg after one hour which increased only by 20 mm. Hg 6 hours after administration; and another particularly preferred compound: 2-[4-(2-furoyl)-1-piperazinyl]-4-amino-6-chloro-7-methoxyquinazoline effected a reduction in blood pressure of 40 mm. Hg which increased by only 5 mm. Hg six hours after the oral dose (0.2 mg./hg.) had been administered.

SMILES	reduction in blood pressure [mm. Hg]
COc1cc2nc(N3CCN(C(=O)c4ccco4)CC3)nc(N)c2cc1Cl [2-[4-(2-furoyl)-1-piperazinyl]-4-amino-6-chloro-7-methoxyquinazoline]	40

same assay, conditions: 0.2 mg./kg.

SMILES	heart rate change	other side effect
COc1cc2nc(N3CCN(C(=O)c4ccco4)CC3)nc(N)c2cc1Cl [2-[4-(2-furoyl)-1-piperazinyl]-4-amino-6-chloro-7-methoxyquinazoline]	no significant heart rate change	no significant heart rate change or other unwanted side effect
COc1c(Cl)cc2c(N)nc(N3CCN(C(=O)OCC(C)(C)O)CC3)nc2c1OC [2-[4-(2-hydroxy-2-methylprop-1-yloxycarbonyl)piperazin-1-yl]-4-amino-6-chloro-7,8-dimethoxyquinazoline]	no significant change in heart rate	no significant change in heart rate or other side effect
COc1cc2nc(N3CCN(C(=O)OCC(C)(C)O)CC3)nc(N)c2cc1Cl [2-[4-(2-hydroxy-2-methylprop-1-yloxycarbonyl)piperazin-1-yl]-4-amino-6-chloro-7-methoxyquinazoline]	no significant heart rate change	no significant heart rate change or other unwanted side effect

same assay, conditions: 0.2 mg./kg., 4 hours, statistically significant

SMILES	decrease of blood pressure after 4 hours [mm. Hg]
COc1c(Cl)cc2c(N)nc(N3CCN(C(=O)OCC(C)(C)O)CC3)nc2c1OC [2-[4-(2-hydroxy-2-methylprop-1-yloxycarbonyl)piperazin-1-yl]-4-amino-6-chloro-7,8-dimethoxyquinazoline]	30

same assay, conditions: 0.2 mg./kg., 6 hours after dose

SMILES	increase (return) of the reduced blood pressure 6 hours after administration [mm. Hg]
COc1cc2nc(N3CCN(C(=O)c4ccco4)CC3)nc(N)c2cc1Cl [2-[4-(2-furoyl)-1-piperazinyl]-4-amino-6-chloro-7-methoxyquinazoline]	5
COc1cc2nc(N3CCN(C(=O)OCC(C)(C)O)CC3)nc(N)c2cc1Cl [2-[4-(2-hydroxy-2-methylprop-1-yloxycarbonyl)piperazin-1-yl]-4-amino-6-chloro-7-methoxyquinazoline]	20

same assay, conditions: same dosage (0.2 mg./kg.), one hour

SMILES	reduction of blood pressure after one hour [mm. Hg]
COc1cc2nc(N3CCN(C(=O)OCC(C)(C)O)CC3)nc(N)c2cc1Cl [2-[4-(2-hydroxy-2-methylprop-1-yloxycarbonyl)piperazin-1-yl]-4-amino-6-chloro-7-methoxyquinazoline]	40

test system: not given; assay: not given; details: Althuis et al., J. Med. Chem., 20, 146 (1977); cited from earlier work

SMILES	metabolite of prazosin
COc1cc2nc(N3CCN(C(=O)c4ccco4)CC3)nc(N)c2cc1O [6-0-demethyl derivative]	major metabolite of prazosin
COc1cc2c(N)nc(N3CCN(C(=O)c4ccco4)CC3)nc2cc1O [7-0-demethyl derivative]	less prevalent metabolite

test system: not given; assay: not given; details: literature; cited from earlier work

SMILES	antihypertensive activity / potency
COc1cc2nc(N3CCN(C(=O)c4ccco4)CC3)nc(N)c2cc1O [6-0-demethyl derivative]	considerably lower blood pressure lowering activity
COc1cc2c(N)nc(N3CCN(C(=O)OCC(C)(C)O)CC3)nc2c(OC)c1OC [Trimazosin]	active antihypertensive agent; also recorded: less potent than prazosin
COc1cc2nc(N3CCN(C(=O)c4ccco4)CC3)nc(N)c2cc1OC [prazosin, 2-[4-(2-furoyl)piperazin-1-yl]-4-amino-6,7-dimethoxyquinazoline]	clinically useful antihypertensive agent

test system: not listed separately; assay: Water solubility; assay type: physicochemical; details: Example 10 table; hydrochloride salts except as otherwise noted; solvent not given; read-out: Solubility

solubility [mg/mL]	SMILES
150	COc1ccc2c(N)nc(N3CCN(C(=O)C4CCCO4)CC3)nc2c1OC (stereo not shown)
11	COc1ccc2c(N)nc(N3CCN(C(=O)c4cccs4)CC3)nc2c1OC
50	COc1ccc2c(N)nc(N3CCN(C(=O)c4ccccc4)CC3)nc2c1OC
15	COc1ccc2c(N)nc(N3CCN(C(=O)C4COc5ccccc5O4)CC3)nc2c1OC (stereo not shown)
8	COc1ccc2c(N)nc(N3CCN(c4cccc(C(F)(F)F)c4)CC3)nc2c1OC [3-CF3 C6 H4]
25	COc1ccc2c(N)nc(N3CCN(c4ccccc4)CC3)nc2c1OC [C6 H5]
100	COc1ccc2c(N)nc(N3CCN(Cc4ccccc4)CC3)nc2c1OC [CH2 C6 H5]
95	COc1ccc2c(N)nc(N3CCN(CCO)CC3)nc2c1OC [CH2 CH2 OH]
50	C=CCN1CCN(c2nc(N)c3ccc(OC)c(OC)c3n2)CC1 [CH2 CHCH2]
140	CCCOC(=O)N1CCN(c2nc(N)c3ccc(OC)c(OC)c3n2)CC1 [COO(CH2)2 CH3]
25	COc1ccc2c(N)nc(N3CCN(C(=O)OCCC(C)C)CC3)nc2c1OC [COO(CH2)2 CH(CH3)2]
40	CCCCCOC(=O)N1CCN(c2nc(N)c3ccc(OC)c(OC)c3n2)CC1 [COO(CH2)4 CH3]
90	CCCCOC(=O)N1CCN(c2nc(N)c3ccc(OC)c(OC)c3n2)CC1 [COO(CH 2)3 CH3]
50	CCOC(=O)N1CCN(c2nc(N)c3ccc(OC)c(OC)c3n2)CC1 [COOCH2 CH3]
40	COc1ccc2c(N)nc(N3CCN(C(=O)OCC(C)C)CC3)nc2c1OC [COOCH2 CH(CH3)2]
40	COC(=O)N1CCN(c2nc(N)c3ccc(OC)c(OC)c3n2)CC1 [COOCH3]

same assay, conditions: water; hydrochloride salts; read-out: water solubility

solubility [mg/mL]	SMILES
20	COc1ccc2c(N)nc(N3CCN(C(=O)c4ccco4)CC3)nc2c1OC.Cl [Example 4, 2-[4-(2-Furoyl)piperazine-1-yl]-4-amino-7,8-dimethoxyquinazoline hydrochloride]
30	COc1ccc2c(N)nc(N3CCCN(C(=O)c4ccco4)CC3)nc2c1OC [Example 11, 2-[4-(2-Furoyl-homopiperazine-1-yl]-4-amino-7,8-dimethoxyquinazoline hydrochloride]

Second part, the compound before the results:

SMILES	solubility [mg/mL]
COc1c(Cl)cc2c(N)nc(N3CCN(C(=O)c4ccco4)CC3)nc2c1OC.Cl [Example 8A, 2-[4-(2-Furoyl)piperazine-1-yl]-4-amino-6-chloro-7,8-dimethoxyquinazoline hydrochloride]	8
COc1cc2nc(N3CCN(C(=O)c4ccco4)CC3)nc(N)c2cc1Cl.Cl [Example 8B, 2-[4-(2-Furoyl)piperazine-1-yl]-4-amino-6-chloro-7-methoxyquinazoline hydrochloride]	5
COc1c(Cl)cc2c(N)nc(N3CCN(C(=O)OCC(C)(C)O)CC3)nc2c1OC.Cl [Example 9A, 2-Methyl-2-hydroxypropyl 4-[4-amino-6-chloro-7,8-dimethoxyquinazolin-2-yl]piperazine-1-carboxylate hydrochloride]	35
COc1cc2nc(N3CCN(C(=O)OCC(C)(C)O)CC3)nc(N)c2cc1Cl [Example 9B, hydrochloride]	6
COc1ccc2c(N)nc(N3CCCN(C(=O)C4CCCO4)CC3)nc2c1OC.Cl (stereo not shown) [Example 12, 2-[4-(2-Tetrahydrofuroyl)homopiperazin-1-yl]-4-amino-7,8-dimethoxyquinazoline hydrochloride]	120
COc1ccc2c(N)nc(N3CCC(Cc4ccccc4)CC3)nc2c1OC.Cl [Example 13, 2-(4-Benzylpiperidin-1-yl)-4-amino-7,8-dimethoxyquinazoline hydrochloride]	6
